# According to PMC11642016 (International Journal of Molecular Sciences, 2024):
# Where “and” joins values, the source holds several entries; their conditions need not be identical. Identical values can stand only once. Like-named read-outs stand apart in the source and are kept apart here.
# What was measured:
# PANC-1 and Fadu cells = assay: CellTiter-Glo viability, statements covering both cancer cell lines; assay type: cell-based, human; conditions: 72 h dose–response
# Protocol: The effects of the synthesized compounds on cell viability were measured using the CellTiter-Glo® luminescent cell viability assay (Promega, Madison, WI, USA), according to the manufacturer’s instructions. […] After seeding, cells were incubated for a further 48 h before treatment. Cells were treated with the compounds for 72 h. […] After treatment, the luminescence signal was recorded using a microplate reader (BioTek Synergy 2 Multi-Mode Reader, BioTek, Winooski, VT, USA).
# HEK293T WT cells = assay: CellTiter-Glo cell viability assay, HEK293T WT; conditions: for HEK293T WT Cell viability (% of controll): 72 h, dose–response, individual replicates
# Protocol: (§1) Primary fibroblast cultures were prepared from human skin biopsies and maintained in DMEM supplemented with 10% FBS, 1% penicillin-streptomycin, and 1% MEM Non-Essential Amino Acids Solution (Thermo Fisher Scientific). […] All cell lines were cultured in a humidified atmosphere at 37 °C and 5% CO2, passaged twice a week, and the experiments were performed on cells between passage 5 and 15. The cell lines were routinely screened for the absence of mycoplasma infection (DAPI staining).
# (§2) The effects of the synthesized compounds on cell viability were measured using the CellTiter-Glo® luminescent cell viability assay (Promega, Madison, WI, USA), according to the manufacturer’s instructions. Briefly, cells were seeded onto a flat-bottomed, white 96-well plate (BRANDplates, cat. no.: 781965)), with the following densities: PANC-1: 750 cells/well, Fadu: 2000 cells/well, primary fibroblasts: 2000 cells/well, HEK293T WT: 1000 cells/well, HEK293T CLPP^−/−: 2500 cells/well. After seeding, cells were incubated for a further 48 h before treatment. Cells were treated with the compounds for 72 h. Three concentrations (25.0 µM; 8.3 µM; 2.8 µM) were applied during the initial cell viability screening, while for the determination of dose–response curves, 1.5-fold serially diluted compound concentrations were applied (range: 26 µM–0.7 µM). After treatment, the luminescence signal was recorded using a microplate reader (BioTek Synergy 2 Multi-Mode Reader, BioTek, Winooski, VT, USA).
# (§3) Data analysis was performed using GraphPad Prism 9.5.0 software (GraphPad Software, San Diego, CA, USA). […] The dose–response curves were generated by four-parameter nonlinear regression, and the IC50 values were determined as the means ± SEM of the best-fit values of 3 independent measurements. The R^2 values were consistently above 0.93, indicating a strong fit of the model to the experimental data (Supplementary S.89). […] Dunnett’s post hoc test was applied to adjust for multiple comparisons, minimizing the likelihood of false positive results. Assumptions for ANOVA, including normality (assessed via QQ plots) and homogeneity of variance (tested using the Brown–Forsythe test), were verified. The following significance levels were applied: * p < 0.05, ** p < 0.01, *** p < 0.001, **** p < 0.0001. […] The tumor selectivity of the compounds was quantitatively characterized by the selectivity index (SI). This parameter was calculated as the ratio of the average best-fit IC50 value for primary fibroblasts and the best-fit IC50 value for the corresponding tumor cells (PANC-1 or Fadu).
# [1] = tested on: non-tumorous primary fibroblast cells; assay: CellTiter-Glo luminescent cell viability assay, primary fibroblasts; conditions: for Primer fibroblast Cell viability (% of controll): 72 h, dose–response, individual replicates
# PANC-1 cells [2] = assay: CellTiter-Glo luminescent cell viability assay, PANC-1; conditions: for PANC-1 Cell viability (% of controll): dose–response, individual replicates
# Fadu cells = assay: CellTiter-Glo luminescent cell viability assay, Fadu; conditions: for Fadu Cell viability (% of controll): dose–response, individual replicates
# PANC-1 cells [3] = assay: Colony formation (clonogenic) assay; assay type: cell-based, human; conditions: 4 µM
# HEK293T CLPP^−/− cells = assay: CellTiter-Glo cell viability assay, HEK293T CLPP−/− (ClpP dependence); conditions: for HEK293T CLPP-/- Cell viability (% of controll): individual replicates;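 as to all read-outs here: CellTiter-Glo luminescent signal read on a microplate reader once HEK293T CLPP−/− cells had been exposed to compounds for 72 h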
# Protocol: as §1, §2, §3
compound,measurement,setting,value
CNCC#Cc1cccc(CN2C(=O)C3=C(CCN(Cc4ccc(-n5cc(-[c-]6cccc6)nn5)cc4)C3)N3CCN=C23)c1.[Fe+2].c1cc[cH-]c1 [38a],concentration range of almost complete eradication of PANC-1 and Fadu cells with little to no cytotoxic effect toward fibroblasts,PANC-1 and Fadu cells,3000 to 4000 nM
same,HEK293T WT Cell viability (% of controll),HEK293T WT cells; 0.4 μM,106 % of controll and 101 % of controll and 99 % of controll and 100 % of controll
same,HEK293T WT Cell viability (% of controll),HEK293T WT cells; 0.6 μM,106 % of controll (2×) and 109 % of controll and 81 % of controll
same,HEK293T WT Cell viability (% of controll),HEK293T WT cells; 1.0 μM,82 % of controll and 90 % of controll and 94 % of controll and 81 % of controll
same,HEK293T WT Cell viability (% of controll),HEK293T WT cells; 1.6 μM,65 % of controll and 60 % of controll and 52 % of controll (2×)
same,HEK293T WT Cell viability (% of controll),HEK293T WT cells; 2.5 μM,11 % of controll and 6 % of controll and 5 % of controll (2×)
same,HEK293T WT Cell viability (% of controll),HEK293T WT cells; 4.0 μM,0 % of controll
same,HEK293T WT Cell viability (% of controll),HEK293T WT cells; 6.4 μM,0 % of controll
same,HEK293T WT Cell viability (% of controll),HEK293T WT cells; 16.25 μM,0 % of controll
same,HEK293T WT Cell viability (% of controll),HEK293T WT cells; 26 μM,0 % of controll
same,IC50,"HEK293T WT cells; read-out: HEK293T WT IC50 values, individual replicates n1-n4, IC50 independently determined for each replicate measurement (Supplement S.6)",1.6 µM and 1.5 µM and 1.65 µM and 1.62 µM
same,IC50,"HEK293T WT cells; read-out: IC50 (µM) HEK293T WT, 72 h treatment, ± SEM, best-fit values, n = 4",1.6 ± 0.04 µM
same,Primer fibroblast Cell viability (% of controll),[1]; 0.7 μM,97 % of controll and 105 % of controll and 109 % of controll
same,Primer fibroblast Cell viability (% of controll),[1]; 1 μM,111 % of controll and 113 % of controll and 100 % of controll
same,Primer fibroblast Cell viability (% of controll),[1]; 1.5 μM,105 % of controll and 113 % of controll and 100 % of controll
same,Primer fibroblast Cell viability (% of controll),[1]; 2.3 μM,105 % of controll and 107 % of controll and 101 % of controll
same,Primer fibroblast Cell viability (% of controll),[1]; 3.4 μM,108 % of controll (2×) and 100 % of controll
same,Primer fibroblast Cell viability (% of controll),[1]; 5.1 μM,9 % of controll (2×) and 6 % of controll
same,Primer fibroblast Cell viability (% of controll),[1]; 7.7 μM,0 % of controll
same,Primer fibroblast Cell viability (% of controll),[1]; 17.3 μM,0 % of controll
same,Primer fibroblast Cell viability (% of controll),[1]; 26 μM,0 % of controll
same,IC50,"[1]; read-out: IC50 Value ± SEM Primary Fibroblast, 72 h treatment, best-fit values, n = 3",4600 ± 830 nM
same,IC50,"[1]; read-out: Primary fibroblast IC50 values, Mean, mean of independently fitted replicate IC50 values (Supplement S.6), ONC201 value mathematically estimated from inflection point",4630 nM
same,IC50,"[1]; read-out: Primary fibroblast IC50 values, individual replicates n1-n3, IC50 independently determined for each replicate (Supplement S.6), ONC201 value mathematically estimated from inflection point, viability stayed above 50%",4800 nM and 4280 nM
same,PANC-1 Cell viability (% of controll),"PANC-1 cells [2]; 0.7 μM, 72 h",112 % of controll and 107 % of controll and 109 % of controll
same,PANC-1 Cell viability (% of controll),"PANC-1 cells [2]; 1 μM, 72 h",107 % of controll and 114 % of controll and 110 % of controll
same,PANC-1 Cell viability (% of controll),"PANC-1 cells [2]; 1.5 μM, 72 h",116 % of controll and 119 % of controll and 108 % of controll
same,PANC-1 Cell viability (% of controll),"PANC-1 cells [2]; 2.3 μM, 72 h",97 % of controll and 105 % of controll and 115 % of controll
same,PANC-1 Cell viability (% of controll),"PANC-1 cells [2]; 3.4 μM, 72 h",2 % of controll (2×) and 4 % of controll
same,PANC-1 Cell viability (% of controll),"PANC-1 cells [2]; 5.1 μM, 72 h",0 % of controll
same,PANC-1 Cell viability (% of controll),"PANC-1 cells [2]; 7.7 μM, 72 h",0 % of controll
same,PANC-1 Cell viability (% of controll),"PANC-1 cells [2]; 17.3 μM, 72 h",0 % of controll
same,PANC-1 Cell viability (% of controll),"PANC-1 cells [2]; 26 μM, 72 h",0 % of controll
same,Cell Viability (% of Control) 2.8 µM,"PANC-1 cells [2]; PANC-1, 2.8 µM, 72 h, second-set screening, mean ± SD, n = 2",44 ± 41 % of Control
same,Cell Viability (% of Control) 8.3 µM,"PANC-1 cells [2]; PANC-1, 8.3 µM, 72 h, second-set screening, mean ± SD, n = 2",0 ± 0 % of Control
same,Cell Viability (% of Control) 25 µM,"PANC-1 cells [2]; PANC-1, 25 µM, 72 h, second-set screening, mean ± SD, n = 2",0 ± 0 % of Control
same,Selectivity Index (SI) Fibroblast/PANC-1,PANC-1 cells [2]; ratio of mean best-fit IC50 for primary fibroblasts and best-fit IC50 for PANC-1,1.7
same,IC50,"PANC-1 cells [2]; read-out: IC50 Value ± SEM PANC-1, 72 h treatment, best-fit values, n = 3",2700 ± 70 nM
same,IC50,"PANC-1 cells [2]; read-out: PANC-1 IC50 values, Mean, mean of independently fitted replicate IC50 values (Supplement S.6)",2710 nM
same,IC50,"PANC-1 cells [2]; read-out: PANC-1 IC50 values, individual replicates n1-n3, IC50 independently determined for each replicate measurement (Supplement S.6)",2790 nM and 2620 nM and 2720 nM
same,Fadu Cell viability (% of controll),"Fadu cells; 0.7 μM, 72 h",109 % of controll and 115 % of controll and 106 % of controll
same,Fadu Cell viability (% of controll),"Fadu cells; 1 μM, 72 h",110 % of controll and 106 % of controll and 105 % of controll
same,Fadu Cell viability (% of controll),"Fadu cells; 1.5 μM, 72 h",102 % of controll and 103 % of controll and 100 % of controll
same,Fadu Cell viability (% of controll),"Fadu cells; 2.3 μM, 72 h",96 % of controll and 91 % of controll and 87 % of controll
same,Fadu Cell viability (% of controll),"Fadu cells; 3.4 μM, 72 h",43 % of controll and 13 % of controll (2×)
same,Fadu Cell viability (% of controll),"Fadu cells; 5.1 μM, 72 h",0 % of controll
same,Fadu Cell viability (% of controll),"Fadu cells; 7.7 μM, 72 h",0 % of controll
same,Fadu Cell viability (% of controll),"Fadu cells; 17.3 μM, 72 h",0 % of controll
same,Fadu Cell viability (% of controll),"Fadu cells; 26 μM, 72 h",0 % of controll
same,Cell Viability (% of Control) 2.8 µM,"Fadu cells; Fadu, 2.8 µM, 72 h, second-set screening, mean ± SD, n = 2",85 ± 16 % of Control
same,Cell Viability (% of Control) 8.3 µM,"Fadu cells; Fadu, 8.3 µM, 72 h, second-set screening, mean ± SD, n = 2",0 ± 1 % of Control
same,Cell Viability (% of Control) 25 µM,"Fadu cells; Fadu, 25 µM, 72 h, second-set screening, mean ± SD, n = 2",0 ± 0 % of Control
same,Selectivity Index (SI) Fibroblast/Fadu,Fadu cells; ratio of mean best-fit IC50 for primary fibroblasts and best-fit IC50 for Fadu,1.6
same,IC50,"Fadu cells; read-out: Fadu IC50 values, individual replicates n1-n3, IC50 independently determined for each replicate measurement (Supplement S.6)",3.2 µM and 2.75 µM (2×)
same,IC50,"Fadu cells; read-out: IC50 Value ± SEM Fadu, 72 h treatment, best-fit values, n = 3",2900 ± 60 nM
same,viable cells / colonies after shorter exposure,PANC-1 cells [3]; 24 h treatment followed by 5 days post-incubation,left only traces of viable cells
same,viable cells / colonies after longer exposure,PANC-1 cells [3]; 72 h treatment followed by 3 days post-incubation,no viable cells were discernible
same,HEK293T CLPP-/- Cell viability (% of controll),"HEK293T CLPP^−/− cells; 0.4 μM, 72 h, dose–response, listed as CZT456, 0.4 µM",109 % of controll and 108 % of controll and 110 % of controll and 114 % of controll
same,HEK293T CLPP-/- Cell viability (% of controll),"HEK293T CLPP^−/− cells; 0.6 μM, 72 h, dose–response, listed as CZT456, 0.6 µM",111 % of controll and 109 % of controll and 110 % of controll
same,HEK293T CLPP-/- Cell viability (% of controll),"HEK293T CLPP^−/− cells; 1.0 μM, 72 h, dose–response, listed as CZT456, 1 µM",105 % of controll and 107 % of controll and 106 % of controll
same,HEK293T CLPP-/- Cell viability (% of controll),"HEK293T CLPP^−/− cells; 1.6 μM, 72 h, dose–response, listed as CZT456, 1.6 µM",92 % of controll and 96 % of controll and 103 % of controll and 93 % of controll
same,HEK293T CLPP-/- Cell viability (% of controll),"HEK293T CLPP^−/− cells; 2.5 μM, 72 h, dose–response, listed as CZT456, 2.5 µM",41 % of controll and 59 % of controll and 55 % of controll and 48 % of controll
same,HEK293T CLPP-/- Cell viability (% of controll),"HEK293T CLPP^−/− cells; 4.0 μM, 72 h, dose–response, listed as CZT456, 4 µM",1 % of controll and 8 % of controll and 9 % of controll
same,HEK293T CLPP-/- Cell viability (% of controll),"HEK293T CLPP^−/− cells; 6.4 μM, 72 h, dose–response",0 % of controll
same,HEK293T CLPP-/- Cell viability (% of controll),"HEK293T CLPP^−/− cells; 16.25 μM, 72 h, dose–response",0 % of controll
same,HEK293T CLPP-/- Cell viability (% of controll),"HEK293T CLPP^−/− cells; 26 μM, 72 h, dose–response",0 % of controll
same,effect on the viability of HEK293T CLPP^−/− cells,"HEK293T CLPP^−/− cells; dose–response, 72 h, compared with HEK293T WT",maintained
same,IC50,"HEK293T CLPP^−/− cells; read-out: IC50 (µM) HEK293T CLPP^−/−, 72 h treatment, ± SEM, best-fit values, n = 4",2.4 ± 0.03 µM
